Experiment [1] has as its target T1, Kit D816V (HMC1.2 cells, Kit V560G and D816V) (Homo sapiens, UniProt P10721, D816V/V560G).
T1 construct: endogenous in cells; host or cells: HMC1.2 cells
The experiment in a line: HMC1.2 autophosphorylation assay (AlphaLISA, phospho-Y719 c-Kit). In kind it is cell-based. To be noted: Kit autophosphorylation at tyrosine 719, 90 minutes, read-out: Cellular Activity. The protocol:
HMC1.2 Autophosphorylation Assay:
10,000 HMC1.2 cells were incubated in 22 ul culture media (phenol-red free IMDM, no serum) in each well of a 384-well plate and serum starved overnight in a tissue culture incubator (5% CO2, 37° C.). A 10-point dose concentration series of compound (25 uM-95.4 pM) were then added to the cells in a volume of 3.1 ul to each well (0.25% DMSO final concentration). After 90 minutes, 6 ul of 5× AlphaLISA Lysis Buffer (Perkin Elmer) supplemented with a protease and phosphatase inhibitor cocktail (Cell Signaling Technologies) was added to each well and shaken at 450 rpm for 15 minutes at 4° C. 10 ul of phospho-Y719 c-Kit and total c-Kit antibodies (15 nM final concentration, Cell Signaling Technologies) and 50 ug/ml AlphaLISA rabbit acceptor beads (Perkin Elmer) were added to each well and shaken at 300 rpm at room temperature for 2 hours. 10 ul of 100 ug/ml streptavidin donor beads (Perkin Elmer) were added to each well, blocked from light with aluminum adhesive and shaken at 300 rpm at room temperature for 2 hours. Fluorescence signal was obtained on Envision (Perkin Elmer) by AlphaScreen 384 well HTS protocol.
This cell line contains Kit mutated at positions V560G and D816V resulting in constitutive activation of the kinase. The following compounds were tested in an assay to measure direct inhibition of Kit D816V kinase activity by assaying Kit autophosphorylation at tyrosine 719 on the Kit protein.
For orientation: Alpha assays give light when donor and acceptor beads are brought close together.

A further experiment has as its target T2, D816V Kit (Homo sapiens, UniProt P10721, D816V).
T2 construct: purchased Carna Bioscience 08-156
The experiment can be described thus: Kit D816V assay at Km (Caliper electrophoretic mobility shift). To be noted: 15 uM ATP, 25 C, 90 minutes. Type of experiment: biochemical. The protocol:
In order to assess the activity of chemical compounds against the relevant kinase of interest, the Caliper LifeSciences electrophoretic mobility shift technology platform is used. Fluorescently labeled substrate peptide is incubated in the presence of kinase and ATP so that a […] proportion of the peptide is phosphorylated. At the end of the reaction, the mix of phosphorylated (product) and non-phosphorylated (substrate) peptides are passed through the microfluidic system of the Caliper EZ Reader 2, under an applied potential difference. The presence of the phosphate group on the product peptide provides a difference in mass and charge between those of the substrate peptide, resulting in a separation of the substrate and product pools in the sample. As the pools pass a LEDS within the instrument, these pools are detected and resolved as separate peaks. The ratio between these peaks therefore reflects the activity of the chemical matter at that concentration in that well, under those conditions.
The reaction was stopped by the addition of 70 ul of Stop buffer (100 mM HEPES pH 7.5, 0.015% Brij 35, 35 mM EDTA and 0.2% of Coating Reagent 3 (Caliper Lifesciences)). The plate was then read on a Caliper EZReader 2 (protocol settings: −1.9 psi, upstream voltage −700, downstream voltage −3000, post sample sip 35 s).

T2 sequence (P10721 26-976 D816V): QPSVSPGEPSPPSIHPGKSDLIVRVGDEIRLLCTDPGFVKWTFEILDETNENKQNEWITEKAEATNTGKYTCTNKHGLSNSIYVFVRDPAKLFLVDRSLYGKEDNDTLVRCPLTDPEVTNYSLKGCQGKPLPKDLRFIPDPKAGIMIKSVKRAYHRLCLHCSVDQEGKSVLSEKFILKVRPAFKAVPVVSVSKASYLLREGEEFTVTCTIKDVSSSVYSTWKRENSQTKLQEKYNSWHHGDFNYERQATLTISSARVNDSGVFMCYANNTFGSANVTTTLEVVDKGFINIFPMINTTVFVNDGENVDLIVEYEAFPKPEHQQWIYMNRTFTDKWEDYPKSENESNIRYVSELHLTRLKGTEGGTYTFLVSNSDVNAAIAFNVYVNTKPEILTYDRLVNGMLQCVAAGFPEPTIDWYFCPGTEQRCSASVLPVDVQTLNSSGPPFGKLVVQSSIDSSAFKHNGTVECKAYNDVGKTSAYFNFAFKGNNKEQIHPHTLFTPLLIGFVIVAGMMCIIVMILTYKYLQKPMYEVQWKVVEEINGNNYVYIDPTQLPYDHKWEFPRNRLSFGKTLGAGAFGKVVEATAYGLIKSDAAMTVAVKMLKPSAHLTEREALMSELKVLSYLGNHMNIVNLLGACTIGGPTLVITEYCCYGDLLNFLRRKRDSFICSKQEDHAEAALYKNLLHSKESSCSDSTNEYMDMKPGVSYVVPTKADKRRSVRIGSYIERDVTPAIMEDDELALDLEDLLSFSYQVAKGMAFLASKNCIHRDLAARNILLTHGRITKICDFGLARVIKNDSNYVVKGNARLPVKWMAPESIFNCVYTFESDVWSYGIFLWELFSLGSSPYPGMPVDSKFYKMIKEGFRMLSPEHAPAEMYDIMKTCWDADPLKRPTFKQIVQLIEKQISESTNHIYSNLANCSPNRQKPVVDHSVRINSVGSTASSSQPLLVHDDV
T1 sequence (P10721 26-976 V560G/D816V): as the sequence (P10721 26-976 D816V) above, with V535G counted along it

Regarding `Nc1nc(N2CCN(c3ncnc(Nc4ccc(N5CCC[C@@H](O)C5)cc4)n3)CC2)ncc1Cc1ccccc1` [Compound 231], the IC50 is 10 to 100 nM in experiment [1] and below 1 nM on D816V Kit.
In the same order, the values of `O[C@@H]1CCN(c2ccc(Nc3ncnc(N4CCN(c5ncc(Cc6ccccc6)cn5)CC4)n3)cc2)C[C@@H]1O` [Compound 232] are 10 to 100 nM and below 1 nM.
In the same order, the values of `Fc1cccc(Sc2cnc(N3CCN(c4ncnc(Nc5cnn(C[C@@H]6CNCCO6)c5)n4)CC3)nc2)c1` [Compound 257] are 100 to 1000 nM and 1.01 to 10 nM.
On the same counts, the results for `Cc1c(Nc2ncnc(N3CCN(c4ncc(Cc5ccccc5F)cn4)CC3)n2)cnn1C[C@@H]1CNCCO1` [Compound 272] are 10 to 100 nM and below 1 nM.
Turning to `Cc1nn(CC(C)(C)O)cc1Nc1ncnc(N2CCN(c3ncc(Sc4ccccc4F)cn3)CC2)n1` [Compound 209], the IC50 in experiment [1] is 10 to 100 nM; on D816V Kit, below 1 nM.
In the same order, the values of `Cn1cc(Nc2ncnc(N3CCN(c4ncc([C@@](C)(O)c5ccc(F)cc5)cn4)CC3)n2)cn1` (single isomer, unassigned) [Compound 38] are 10 to 100 nM and below 1 nM.
On the same counts, the results for `Fc1ccccc1Cc1cnc(N2CCN(c3ncnc(Nc4cnn(C[C@@H]5CNCCO5)c4)n3)CC2)cn1` [Compound 198] are below 10 nM and below 1 nM.
On the same counts, the results for `C[C@H](O)CNc1ccc(Nc2ncnc(N3CCN(c4ncc(Sc5ccccc5F)cn4)CC3)n2)cc1` [Compound 205] are 10 to 100 nM and 1.01 to 10 nM.
On to `Cc1c(Nc2ncnc(N3CCN(c4ncc(Cc5ccccc5)cn4)[C@H](C)C3)n2)cnn1C[C@@H]1CNCCO1` [Compound 242], for which the IC50 in experiment [1] is 10 to 100 nM; on D816V Kit, below 1 nM.
Turning to `C[C@@H](c1ccccc1)c1cnc(N2CCN(c3ncnc(Nc4ccc(N5CCC[C@@H](O)C5)cc4)n3)CC2)nc1` [Compound 224], the figures for the IC50 (in experiment [1]; at D816V Kit) were 10 to 100 nM and below 1 nM, respectively.
For the compound `COc1cc(Nc2ncnc(N3CCN(c4ncc(Cc5ccccc5)cn4)CC3)n2)ccn1` [Compound 17], the IC50 in experiment [1] is 1000 to 10000 nM; at D816V Kit, 1.01 to 10 nM.
On the same counts, the results for `OC[C@@H](O)c1ccc(Nc2ncnc(N3CCN(c4ncc(Cc5ccc(F)cc5)cn4)CC3)n2)cc1` [Compound 92] are 10 to 100 nM and below 1 nM.
Turning to `OC[C@H](O)Cn1cc(Nc2ncnc(N3CCN(c4ncc(Cc5ccccc5)cn4)CC3)n2)cn1` [Compound 66], the values for the IC50 (in experiment [1]; on D816V Kit) were 10 to 100 nM and below 1 nM, respectively.
In the same order, the values of `OCc1ccccc1Cc1cnc(N2CCN(c3ncnc(Nc4ccc5c(c4)CNCC5)n3)CC2)nc1` [Compound 109] are below 10 nM and below 1 nM.
In the same order, the values of `CC(C)(O)CN1CCc2ccc(Nc3ncnc(N4CCN(c5ncc(Cc6ccccc6)cn5)CC4)n3)cc2C1` [Compound 262] are 10 to 100 nM and below 1 nM.
In the same order, the values of `CC(C)(O)Cn1cc(Nc2ncnc(N3CCN(c4ncc(Sc5ccccc5F)cn4)CC3)n2)cn1` [Compound 150] are 10 to 100 nM and 1.01 to 10 nM.
As for `Fc1cc(N2CCNCC2)ccc1Nc1ncnc(N2CCN(c3ncc(Cc4ccccc4)cn3)CC2)n1` [Compound 175], the values for the IC50 (in experiment [1]; at D816V Kit) were 1000 to 10000 nM and 1.01 to 10 nM, respectively.
In the same order, the values of `C[C@@H](O)CNc1ccc(Nc2ncnc(N3CCN(c4ncc(Cc5ccccc5)cn4)CC3)n2)cc1` [Compound 82] are 10 to 100 nM and below 1 nM.
On the same counts, the results for `OC[C@H](O)c1ccc(Nc2ncnc(N3CCN(c4ncc(Cc5ccc(F)cc5)cn4)CC3)n2)cc1` [Compound 93] are 10 to 100 nM and below 1 nM.
In the same order, the values of `Cc1c(Nc2ncnc(N3CCN(c4ncc(Sc5ccc(F)cc5)cn4)CC3)n2)cnn1C[C@H](C)O` [Compound 151] are 10 to 100 nM and 1.01 to 10 nM.
As for `Fc1cccc(Cc2cnc(N3CCN(c4ncnc(Nc5ccc6c(c5)CNCC6)n4)CC3)nc2)c1F` [Compound 137], the figures for the IC50 (in experiment [1]; on D816V Kit) were 10 to 100 nM and 1.01 to 10 nM, respectively.
In the same order, the values of `CC(C)(c1ccc(F)cc1)c1cnc(N2CCN(c3ncnc(Nc4cnn(C[C@@H]5CNCCO5)c4)n3)CC2)nc1` [Compound 267] are 10 to 100 nM and below 1 nM.
In the same order, the values of `c1cncc(Cc2cnc(N3CCN(c4ncnc(Nc5ccc6c(c5)CNCC6)n4)CC3)nc2)c1` [Compound 45] are 10 to 100 nM and 1.01 to 10 nM.
As to `Cc1nc(N2CCN(c3ncnc(Nc4ccc5c(c4)CNCC5)n3)CC2)ncc1Cc1ccccc1` [Compound 70], the IC50 was 100 to 1000 nM in experiment [1] and 1.01 to 10 nM on D816V Kit.
On the same counts, the results for `Fc1ccc(Oc2cnc(N3CCN(c4ncnc(Nc5cnn(C[C@@H]6CNCCO6)c5)n4)CC3)nc2)cc1` [Compound 202] are 100 to 1000 nM and 1.01 to 10 nM.
Turning to `OCC(O)c1ccc(Nc2ncnc(N3CCN(c4ncc(Cc5ccccc5)cn4)CC3)n2)cc1` (stereo not shown) [Compound 55], the values for the IC50 (in experiment [1]; at D816V Kit) were 10 to 100 nM and below 1 nM, respectively.
In the same order, the values of `c1ccc(Cc2cnc(N3CCN(c4ncnc(Nc5cnn(C6COC6)c5)n4)CC3)nc2)cc1` [Compound 28] are 10 to 100 nM and below 1 nM.
In the same order, the values of `Clc1ncc(N2CCN(c3ncnc(Nc4cnn(CC5CNCCO5)c4)n3)CC2)nn1` (stereo not shown) [Compound 18] are above 10000 nM and above 100 nM.
On the same counts, the results for `c1nc(Nc2cnn(CC3CNCCO3)c2)nc(N2CCN(c3ncc(C4CC4)cn3)CC2)n1` (stereo not shown) [Compound 19] are above 10000 nM and 10 to 100 nM.
Regarding `CC(C)(c1ccccc1)c1cnc(N2CCN(c3ncnc(Nc4cnn(C[C@@H]5CNCCO5)c4)n3)CC2)nc1` [Compound 244], the IC50 was 10 to 100 nM in experiment [1] and below 1 nM on D816V Kit.
In the same order, the values of `OC[C@@H]1CN(c2ncnc(Nc3cnn(CC4CNCCO4)c3)n2)CCN1c1ncc(Cc2ccccc2)cn1` (stereo partly shown) [Compound 248] are 10 to 100 nM and below 1 nM.
In the case of `c1ccc(Cc2cnc(N3CCN(c4ncnc(Nc5ccc6c(c5)CN(C5CC5)CC6)n4)CC3)nc2)cc1` [Compound 145], the IC50 (in experiment [1]; at D816V Kit) was 10 to 100 nM throughout.
For `c1ccc(Cc2cnc(N3CCN(c4ncnc(Nc5ccc(O[C@H]6CCNC6)cc5)n4)CC3)nc2)cc1` [Compound 108], the IC50 in experiment [1] was 10 to 100 nM; on D816V Kit, below 1 nM.
Take `c1ccc(C2(c3cnc(N4CCN(c5ncnc(Nc6cnn(C[C@@H]7CNCCO7)c6)n5)CC4)nc3)CC2)cc1` [Compound 233]: the IC50 fell in the range of 10 to 100 nM in experiment [1] and 1.01 to 10 nM at D816V Kit.
On the same counts, the results for `[2H]C([2H])(c1ccccc1)c1cnc(N2CCN(c3ncnc(Nc4cnn(C[C@@H]5CNCCO5)c4)n3)CC2)nc1` [Compound 141] are 10 to 100 nM and 1.01 to 10 nM.
In the same order, the values of `O[C@@H]1CCN(c2ccc(Nc3ncnc(N4CCN(c5ncc(Cc6ccccc6)cn5)CC4)n3)cc2)C1` [Compound 111] are 10 to 100 nM and 1.01 to 10 nM.
In the same order, the values of `C=C(c1ccccc1)c1cnc(N2CCN(c3ncnc(Nc4cnn(C[C@@H]5CNCCO5)c4)n3)CC2)nc1` [Compound 173] are 10 to 100 nM and 1.01 to 10 nM.
Turning to `CN(C)S(=O)(=O)Cc1ccc(Nc2ncnc(N3CCN(c4ncc(Cc5ccccc5)cn4)CC3)n2)cc1` [Compound 252], the IC50 in experiment [1] lay within 10 to 100 nM; at D816V Kit, 1.01 to 10 nM.
`C[C@H](O)Cn1cc(Nc2ncnc(N3CCN(c4ncc(Cc5ccccc5)cn4)CC3)n2)cn1` [Compound 33]: the IC50 in experiment [1] fell in the range of 10 to 100 nM; at D816V Kit, 1.01 to 10 nM.
On the same counts, the results for `CC1(O)CCCN(c2ccc(Nc3ncnc(N4CCN(c5ncc(Cc6ccccc6)cn5)CC4)n3)cc2)C1` (stereo not shown) [Compound 225] are 10 to 100 nM and 1.01 to 10 nM.
On the same counts, the results for `CC(C)(O)c1ccc(Nc2ncnc(N3CCN(c4ncc([C@@](C)(N)c5ccc(F)cc5)cn4)CC3)n2)cc1` [Compound 193] are below 10 nM and below 1 nM.

Values taken from patent publication US9334263B2, “Compositions useful for treating disorders related to kit” (BLUEPRINT MEDICINES CORPORATION, priority 2013, dated 2016).
